Experimental data from PubChem BioAssay AID248 (DTP/NCI, 2004).
“And” between values parts separate entries of the source, which are not always exact repeats. Equal entries are not always repeated. Inconclusive results and toxic doses are left out. Cut-off read from the data, not from the text of the source: active = T/C of 150% or more; inactive = T/C below 125%.

Tested on: L1210 leukemia ip in BDF1 mice, survival T/C
Assay: NCI In Vivo Anticancer Drug Screen. Data for tumor model L1210 Leukemia (intraperitoneal) in B6D2F1 (BDF1) mice
Details: endpoint: mean survival time, higher = longer survival
In short: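 Tumor was transplanted into mice, which were then dosed with test compound or vehicle alone. Survival was recorded for each group, and the treated figure was expressed relative to the control figure.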

[1] = dose: 100.0 mg/kg/injection, schedule: Q01DX001 (ip), vehicle: carboxymethylcellulose (CMC)
[2] = dose: 100.0 mg/kg/injection, schedule: Q01DX009 (ip), vehicle: saline with Tween-80
[3] = dose: 100.0 mg/kg/injection, schedule: Q04DX003 (ip), vehicle: Klucel (hydroxypropylcellulose) (HPC)
[4] = dose: 200.0 mg/kg/injection, schedule: Q04DX003 (ip), vehicle: Klucel (hydroxypropylcellulose) (HPC)
[5] = dose: 400.0 mg/kg/injection, schedule: Q04DX003 (ip), vehicle: Klucel (hydroxypropylcellulose) (HPC)
[6] = dose: 100.0 mg/kg/injection, schedule: Q04DX002 (ip), vehicle: Klucel (hydroxypropylcellulose) (HPC)
[7] = dose: 200.0 mg/kg/injection, schedule: Q04DX002 (ip), vehicle: Klucel (hydroxypropylcellulose) (HPC)
[8] = dose: 400.0 mg/kg/injection, schedule: Q04DX002 (ip), vehicle: Klucel (hydroxypropylcellulose) (HPC)
[9] = dose: 50.0 mg/kg/injection, schedule: Q04DX003 (ip), vehicle: saline with Tween-80
[10] = dose: 100.0 mg/kg/injection, schedule: Q04DX003 (ip), vehicle: saline with Tween-80
[11] = dose: 100.0 mg/kg/injection, schedule: Q01DX009 (ip), vehicle: Klucel (hydroxypropylcellulose) (HPC)
[12] = dose: 200.0 mg/kg/injection, schedule: Q01DX009 (ip), vehicle: Klucel (hydroxypropylcellulose) (HPC)
[13] = dose: 400.0 mg/kg/injection, schedule: Q01DX009 (ip), vehicle: Klucel (hydroxypropylcellulose) (HPC)

Measured: T/C

NC(N)=NNCCOc1c(Cl)cccc1Cl
inactive: dose: 25.0 mg/kg/injection, schedule: Q01DX001 (ip), vehicle: carboxymethylcellulose (CMC) 116 % of control | dose: 50.0 mg/kg/injection, schedule: Q01DX001 (ip), vehicle: carboxymethylcellulose (CMC) 101 % of control | [1] 111 % of control

CCOCCOCCOC(C)Oc1cccc(OC)c1 (stereo not drawn)
inactive: dose: 100.0 mg/kg/injection, schedule: Q04DX002 (ip), vehicle: saline 107 % of control | dose: 200.0 mg/kg/injection, schedule: Q04DX002 (ip), vehicle: saline 101 % of control | dose: 400.0 mg/kg/injection, schedule: Q04DX002 (ip), vehicle: saline 96 % of control

C/C=C\c1ccc(OCCOC(=O)Nc2c(C)cccc2C)c(OC)c1
inactive: [2] 92 % of control | dose: 200.0 mg/kg/injection, schedule: Q01DX009 (ip), vehicle: saline with Tween-80 89 % of control | dose: 400.0 mg/kg/injection, schedule: Q01DX009 (ip), vehicle: saline with Tween-80 87 % of control

CC(=O)NCCCCNS(=O)(=O)c1ccc(C)cc1
inactive: [3] 95 % of control | [4] 95 % of control | [5] 93 % of control

O=c1oc2ccc3ccccc3c2cc1-c1nc2ccccc2[nH]1
inactive: [6] 95 % of control | [7] 91 % of control | [8] 110 % of control

NCCC1CNCCN1.[Cl][Pd]([Cl])([Cl])[Cl] (stereo not drawn)
inactive: dose: 12.5 mg/kg/injection, schedule: Q01DX001 (ip), vehicle: saline 108 % of control | dose: 25.0 mg/kg/injection, schedule: Q01DX001 (ip), vehicle: saline 108 % of control | dose: 50.0 mg/kg/injection, schedule: Q01DX001 (ip), vehicle: saline 103 % of control | dose: 100.0 mg/kg/injection, schedule: Q01DX001 (ip), vehicle: DMSO 98 % of control

CCCCCCCCCCCCOCCC(=O)O
inactive: dose: 75.0 mg/kg/injection, schedule: Q01DX001 (ip), vehicle: saline 100 % of control | dose: 150.0 mg/kg/injection, schedule: Q01DX001 (ip), vehicle: saline 94 % of control | dose: 300.0 mg/kg/injection, schedule: Q01DX001 (ip), vehicle: saline 94 % of control

COc1cc(C=NCCN=Cc2cc(OC)c(OC)c(OC)c2)cc(OC)c1OC
inactive: dose: 50.0 mg/kg/injection, schedule: Q01DX009 (ip), vehicle: saline with Tween-80 94 % of control | [9] 94 % of control | [2] 100 % of control | [10] 98 % of control | dose: 200.0 mg/kg/injection, schedule: Q04DX003 (ip), vehicle: saline with Tween-80 105 % of control

CCCCCCCCCCCCOP(=S)(S)OCCCCCCCCCCCC.[Cd]
inactive: dose: 1.56 mg/kg/injection, schedule: Q01DX009 (ip), vehicle: saline with Tween-80 102 % of control | dose: 3.13 mg/kg/injection, schedule: Q01DX009 (ip), vehicle: saline with Tween-80 97 % of control | dose: 6.25 mg/kg/injection, schedule: Q01DX009 (ip), vehicle: saline with Tween-80 96 % of control | dose: 50.0 mg/kg/injection, schedule: Q04DX002 (ip), vehicle: saline with Tween-80 94 % of control | dose: 100.0 mg/kg/injection, schedule: Q04DX002 (ip), vehicle: saline with Tween-80 86 % of control and 91 % of control

O=C1OCCC1n1ccc(=O)[nH]c1=O (stereo not drawn)
inactive: dose: 100.0 mg/kg/injection, schedule: Q01DX009 (ip), vehicle: saline 111 % of control | dose: 200.0 mg/kg/injection, schedule: Q01DX009 (ip), vehicle: saline 105 % of control | dose: 400.0 mg/kg/injection, schedule: Q01DX009 (ip), vehicle: saline 106 % of control

O=S(=O)(OCC(F)(F)F)c1ccccc1
inactive: [11] 103 % of control | [3] 97 % of control | [12] 101 % of control | [4] 102 % of control | [5] 103 % of control

Cc1ccnc2c3c4c(cc12)c(C)cc(=O)n4CO3
inactive: dose: 75.0 mg/kg/injection, schedule: Q01DX001 (ip), vehicle: Klucel (hydroxypropylcellulose) (HPC) 104 % of control | dose: 150.0 mg/kg/injection, schedule: Q01DX001 (ip), vehicle: Klucel (hydroxypropylcellulose) (HPC) 95 % of control | dose: 150.0 mg/kg/injection, schedule: Q01DX009 (ip), vehicle: Klucel (hydroxypropylcellulose) (HPC) 114 % of control | dose: 300.0 mg/kg/injection, schedule: Q01DX001 (ip), vehicle: Klucel (hydroxypropylcellulose) (HPC) 98 % of control

CC1(C)C(=NNc2ccc([N+](=O)[O-])cc2[N+](=O)[O-])C(C)(C)C1(Cl)Cl
inactive: dose: 50.0 mg/kg/injection, schedule: Q04DX002 (ip), vehicle: Klucel (hydroxypropylcellulose) (HPC) 97 % of control | [6] 118 % of control | [7] 105 % of control

CCOc1ccccc1NC(=O)Nc1ccc(Cl)cc1
inactive: [11] 97 % of control | [3] 100 % of control | [12] 103 % of control | [4] 96 % of control | [13] 101 % of control | [5] 100 % of control

COc1ccc(C2C(=O)c3ccc(OC)c(OC)c3C2=O)cc1OC (stereo not drawn)
inactive: dose: 100.0 mg/kg/injection, schedule: Q01DX001 (ip), vehicle: saline 94 % of control | dose: 200.0 mg/kg/injection, schedule: Q01DX001 (ip), vehicle: saline 89 % of control

O=C(CC(O)(C(F)(F)F)C(F)(F)F)c1ccc(C(O)CC(O)(C(F)(F)F)C(F)(F)F)cc1 (stereo not drawn)
inactive: dose: 25.0 mg/kg/injection, schedule: Q01DX009 (ip), vehicle: gum acacia 106 % of control | dose: 25.0 mg/kg/injection, schedule: Q04DX003 (ip), vehicle: gum acacia 102 % of control | dose: 50.0 mg/kg/injection, schedule: Q01DX009 (ip), vehicle: gum acacia 89 % of control | dose: 50.0 mg/kg/injection, schedule: Q04DX003 (ip), vehicle: gum acacia 90 % of control | dose: 100.0 mg/kg/injection, schedule: Q04DX003 (ip), vehicle: gum acacia 93 % of control and 98 % of control

ClCCN(CCCl)CCCNCCCNc1c2ccccc2nc2c1ccc1ccccc12
inactive: dose: 0.08 mg/kg/injection, schedule: Q01DX Z (ip), vehicle: saline 102 % of control | dose: 0.16 mg/kg/injection, schedule: Q01DX Z (ip), vehicle: saline 106 % of control | dose: 0.31 mg/kg/injection, schedule: Q01DX Z (ip), vehicle: saline 110 % of control | dose: 0.62 mg/kg/injection, schedule: Q01DX Z (ip), vehicle: saline 112 % of control | dose: 1.25 mg/kg/injection, schedule: Q01DX Z (ip), vehicle: saline 102 % of control | dose: 2.5 mg/kg/injection, schedule: Q01DX Z (ip), vehicle: saline 97 % of control

Cc1cc(Cl)cc2sc(=S)[nH]c12
inactive: [11] 96 % of control and 108 % of control | [6] 110 % of control | [12] 86 % of control and 92 % of control | [7] 110 % of control | [13] 87 % of control | [8] 110 % of control

COc1cc2c(cc1OC)-c1c(OC)c(OC)cc3c1[C@H](C2)N(C)CC3
inactive: [1] 96 % of control | dose: 200.0 mg/kg/injection, schedule: Q01DX001 (ip), vehicle: carboxymethylcellulose (CMC) 100 % of control | dose: 400.0 mg/kg/injection, schedule: Q01DX001 (ip), vehicle: carboxymethylcellulose (CMC) 100 % of control

c1cc2c3c(c1)nc(CCCc1nc4cccc5c4n1CCC5)n3CCC2
inactive: dose: 25.0 mg/kg/injection, schedule: Q04DX003 (ip), vehicle: saline with Tween-80 109 % of control | [9] 96 % of control | [10] 93 % of control and 87 % of control
